Measured values taken from PubChem BioAssay (NCI).
“And” between values parts separate entries of the source, which are not always exact repeats. Equal entries are not always repeated.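 Values below derive from 48-hour exposures of cells grown in 96-well plates, with endpoints linearly interpolated between the two concentrations bracketing the appropriate inhibition level. Abbreviation: GI50, concentration required for 50% inhibition of growth. TGI marks complete inhibition of growth.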

Assays:
Test in all cases: DTP human tumour cell line panel, 48 h
SF-295 CNS = tested on: SF-295 CNS
IGROV1 ovarian = tested on: IGROV1 ovarian
TK-10 renal = tested on: TK-10 renal
MCF7 breast = tested on: MCF7 breast
A498 renal = tested on: A498 renal
SF-539 CNS = tested on: SF-539 CNS
ACHN renal = tested on: ACHN renal
U251 CNS = tested on: U251 CNS
SW-620 colon = tested on: SW-620 colon
T-47D breast = tested on: T-47D breast

SMILES	GI50 (SF-295 CNS) [µM]	TGI (SF-295 CNS) [µM]	GI50 (IGROV1 ovarian) [µM]	TGI (IGROV1 ovarian) [µM]	GI50 (TK-10 renal) [µM]	TGI (TK-10 renal) [µM]	GI50 (MCF7 breast) [nM]	TGI (MCF7 breast) [µM]	GI50 (A498 renal)	TGI (A498 renal)	GI50 (SF-539 CNS)	TGI (SF-539 CNS) [µM]	GI50 (ACHN renal)	TGI (ACHN renal) [µM]	GI50 (U251 CNS)	TGI (U251 CNS) [µM]	GI50 (SW-620 colon)	TGI (SW-620 colon) [µM]	GI50 (T-47D breast) [µM]	TGI (T-47D breast) [µM]
C=C(C)[C@@H]1CC[C@]2(C(N)=O)CC[C@]3(C)[C@H](CC[C@@H]4[C@@]5(C)C/C(=C/c6cccnc6)[C@H](O)C(C)(C)[C@@H]5CC[C@]43C)[C@@H]12	3.75	> 100	3.85	> 100	16.3	> 100	2680	> 100	10400 nM	> 100 µM	4890 nM	> 100	3530 nM	> 100	4610 nM	> 100	4380 nM	> 100	3.38	> 100
Cc1ccc2c(c1)C=CC(C#N)N2C(=O)Oc1ccccc1 (stereo not drawn)				> 100		94.2		40.2		55.4 µM		> 100		83.3		66.4		> 100		73.8
CCCCCC/C=C1\CCC(CN(C)C)C1=O (stereo not drawn)		27		26.5		9.14		14.7		32.1 µM		28.1		22.2		9.47		6.49		9.81
Cc1c(-c2nnc(-c3cc(Cl)c(Cl)cc3Cl)o2)nnn1-c1ccnc2c(C(F)(F)F)cccc12	27.6	76.2	27.1	71.7	32.2	87	20300	45.1	30300 nM	76.3 µM	18500 nM	34.4	21900 nM	51.6	19300 nM	37.4	30800 nM	> 100	21.7	77.4
O=S(=O)(Nc1ccccn1)c1ccc(N=Nc2ccc(O)c3ncccc23)cc1	2.14	4.86	1.35	16.5	2.82	7.31	1050	8.4	1770 nM	5.73 µM	540 nM	4.18	976 nM	9.64	388 nM	7.04	952 nM	25.5	2.98	8.7
Fc1cccc(-c2[nH]nc3nc(Nc4cccnc4)sc23)c1	3.82	> 100	11.7	> 100	31.2	> 100	708	> 100	> 100000 nM	> 100 µM	3020 nM	> 100	56600 nM	> 100	1010 nM	> 100	35600 nM	> 100	8.69	> 100
COc1cc(N2CCC(N3CCN(C)CC3)CC2)ccc1Nc1ncc(Cl)c(Nc2ccccc2S(=O)(=O)C(C)C)n1	1.8	10.3	1.39	9.2	0.79	2.43	114	6.75	263 nM	1.73 µM	1390 nM	2.74	760 nM	2.61	1000 nM	2.4	337 nM	2.52	1.59	3.55
CCN(CC)CC[n+]1cc2cc(OC)c(OC)cc2c2ccc3cc4c(cc3c21)OCO4	0.429	2.36	0.649	2.67	1.81	5.28	317	2.41	514 nM	2.92 µM	1120 nM	3.16	1250 nM	4.07	308 nM	1.29	442 nM	2.36	0.378	12.1
CC(C)(C)c1cc(-c2nc3c(F)c(F)c(F)c(F)c3[nH]2)cc(C(C)(C)C)c1O	> 100	> 100	> 100	> 100	> 100	> 100	> 100000	> 100	> 100000 nM	> 100 µM	> 100000 nM	> 100	> 100000 nM	> 100	> 100000 nM	> 100	> 100000 nM	> 100	> 100	> 100
C/C=C/C1=CN2C(=O)c3cc(OC4OC(C)C(NC)C(C)(O)C4O)c(C)c(O)c3N=C[C@@H]2C1 (stereo partly drawn)	< 0.01	> 100			0.326			13.4	28.2 nM and < 10 nM	0.0887 µM and < 0.01 µM	74.3 nM and < 10 nM		71 nM and < 10 nM		43 nM and < 10 nM	12.5	95.1 nM and < 10 nM	10.2		15.3
C/C(=C\c1ccn(-c2ccc(N)cc2F)n1)[C@@H]1C[C@@H]2O[C@]2(C)CCC[C@H](C)[C@H](O)[C@@H](C)C(=O)C(C)(C)[C@@H](O)CC(=O)O1	0.0576	> 50	0.0448	> 50	0.0939	> 50	< 11.9	> 50			35.2 nM	0.296	202 nM	> 50	28.5 nM	> 50	21.2 nM	> 50	0.0605	> 50
CCOC(=O)N1C=CC(=C2C(=C3C=CN(C(=O)OCC)C=C3)C(=C3C=CN(C(=O)OCC)C=C3)C2=C2C=CN(C(=O)OCC)C=C2)C=C1		92.3		85.3		81.6		> 100				> 100		38.1		91.7		> 100		> 100
COc1cc(/C=C2\C[C@H]3[C@@H]4CC=C5C[C@@H](OC(C)=O)CC[C@]5(C)[C@H]4CC[C@]3(C)[C@H]2OC(C)=O)ccc1OCCN1CCCCC1	9.57	24.1	40	> 50	10.5	19.1	10600	25			9560 nM	20.6	9280 nM	16.8	8760 nM	16.5	11200 nM	> 50	> 50	> 50
Cc1ccc(NC(=O)c2cc3ccccc3cc2O)c(C)c1.Cc1ccc(NC(=O)c2cc3ccccc3cc2[O-])c(C)c1.[Ni+2]	3.89	14.3			4.66	17	3450		3440 nM	13.4 µM	4750 nM	53.2	4220 nM		2910 nM	8.62	4240 nM	36.8	3.08	14.8
